Reference: PMC6315057, “Industrial scale high-throughput screening delivers multiple fast acting macrofilaricides” (Nature Communications, 2019)
pEC50, pIC50: −log10 of the molar value. In brackets after ≈: the same amount, converted by molar mass.

Legend:
[1] = test system: Wolbachia within Brugia malayi Mf; assay: Anti-Wolbachia time-kill analysis (timed wash-out) in B. malayi Mf; format: cell-based; settings: for Exposure time to achieve a maximal Wolbachia reduction: 10x EC50, maximal reduction 70–90% normalised to vehicle control
Text: To compare the dynamics of the in vitro phenotype of our hits with existing anti-Wolbachia therapies, we employed a timed wash-out strategy (Fig. 5) at 10x EC50 to establish the anti-Wolbachia time-kill kinetics of the selected chemotypes (1A–5A), using five replicates per compound. […].
Fig. 5 Anti-Wolbachia time-kill analysis. Representatives from the top five clusters (1A–5A), as well as established anti-Wolbachia antibacterials (doxycycline (white), minocycline (grey), rifampicin (black)) were assessed after exposure for 1 day and 2 days before washing and further incubation until the standard 6-day read out. wsp:gst ratio was normalised to the DMSO vehicle control resulting in a read out of mean percentage reduction from control. Doxycycline day 6 treatment represents the result for exposure to doxycycline at 5 µM for a full 6 days (no wash). The box extends from the 25th to the 75th percentile with the median presented by the central line. The whiskers are set at the minimum and maximum therefore indicating the range from five replicates. The cluster number is indicated by colour: cluster 1 (dark blue), 2 (magenta), 3 (teal), 4 (dark gold), and 5 (light blue)
(§1) The Mf were obtained by peritoneal lavage, using a catheter, of gerbils (Meriones unguiculatus) harbouring a patent infection of B. malayi. Mf were purified using a PD-10 desalting column (Fisher), centrifuged (311 RCF for 5 min at room temperature) before the addition of 8000 Mf/well of a 96-well plate (100 µl per well) in complete media consisting of RPMI supplemented with 10% FBS, 1% penicillin streptomycin and 1% amphotericin B. Compounds were diluted in complete media and 100 µl was added per well, providing a final concentration of 5 µM, with five replicates per compound. Each plate contained doxycycline (5 µM) and DMSO controls. After incubation at 37 °C for 6 days in 5% CO2, visual assessment of Mf motility was performed and scored from 0 to 4 per well (where 0 = no movement and 4 = highly motile). DNA extraction per sample was performed using the QIAmp DNA Mini Kit before quantitative PCR was performed to obtain the ratio of Wolbachia Surface Protein gene copy number (wsp) to Glutathione S-Transferase gene copy number (gst)[36]. The DNA was amplified using the primers as indicated in Supplementary Table 6.
(§2) The wsp:gst ratio data allowed for normalisation of the Wolbachia level to the Mf biomass for each well. The change in wsp:gst for each compound compared to the DMSO control was calculated before normalisation to the onboard doxycycline control to allow for inter-assay comparison.

[2] = test system: Wolbachia within Brugia malayi Mf; assay: B. malayi microfilarial (Mf) in vitro anti-Wolbachia assay (wsp:gst qPCR); format: cell-based; settings: Brugia malayi, 144 h; B. malayi Mf, 6 days; read-out: Mf EC50
Description: as §1, with “Compounds were diluted in complete media and 100 µl was added per well, providing a final concentration of 5 µM, with five replicates per compound.” left out
as §2

[3] = LogD7.4; format: physicochemical; settings: pH 7.4
Text: (§3) The DMPK data used for triaging compounds, including LogD7.4, aqueous solubility, plasma protein binding, microsome and hepatocyte clearance measurements, were generated using the standard AstraZeneca UK high-throughput platform[37],[38].

[4] = Human plasma protein binding; format: in vitro ADME; settings: plasma
Text: as §3

[5] = Human microsome clearance; format: in vitro ADME; settings: human, human microsomes
Text: as §3

[6] = Aqueous solubility in pH 7.4 PBS; format: physicochemical; settings: PBS pH 7.4, aqueous buffer; pH 7.4 PBS; read-out: Aqueous solubility in pH7.4 PBS
Text: as §3

[7] = test system: THP-1 cells; assay: Mammalian cell viability counter-screen (CellTiter-Blue); format: cell-based, human; settings: Homo sapiens, 48 h, read-out: HTS IC50 mammalian toxicity
Description: The human monocytic THP-1 cell line (ATCC® TIB-202) used for mammalian cytotoxicity evaluation was routinely cultured in roller bottles. Growth media consisted of RPMI 1640 supplemented with 10% FBS and 2 mM L-glutamine. Cells were maintained at 37 °C with 95% humidity in 5% CO2 in a shaking incubator.
All compounds selected for secondary IC50 screen were tested in parallel for mammalian cell viability using the CellTiter-Blue® Cell Viability Assay. THP1 cells were removed from culture and plated at 1 × 10^4 cells/well (40 µl) into 384-well assay ready plates and incubated at 37 °C, 5% CO2 for 48 h at 95% humidity. After the addition of CellTiter-Blue Viability reagent (8 µl of a 1:6 dilution) the assay plates were incubated for a further 2 h before fluorescence detected using a PerkinElmer EnVision™ plate reader.

[8] = test system: Wolbachia in C6/36 (wAlbB) cells; assay: Secondary concentration response HTS (IC50) anti-Wolbachia screen in C6/36 (wAlbB) insect cells; format: cell-based, Wolbachia pipientis wAlbB (in Aedes albopictus C6/36 cells); settings: Wolbachia, 168 h, 7-day incubation, 10-point concentration range
Description: Initially C6/36 (wAlbB) cells (insect cells stably infected with the Wolbachia target) from a single cryopreserved batch were recovered over 7 days prior to plating into 384-well assay ready plates (containing the test compounds), using a semi-automated process allowing for daily batches of ~150 plates, set up 4 days per week for 8 weeks. After a 7-day incubation period with the test compounds the plates were moved into the second fully automated stage (using the Agilent Technologies BioCel system) involving formaldehyde fixation, DNA staining of the insect cell nuclei (Hoechst) for toxicity analysis and antibody staining specific to the intracellular Wolbachia (wBmPAL primary antibody and far-red secondary antibody). In the final stage the fixed and stained plates from stage 2 were processed through automated data acquisition (High Res Biosolutions system, incorporating EnVision™ and acumen® plate readers). This industry standardised assay was then used to screen AstraZeneca’s full library of 1.3 million compounds within 10 weeks. In total this HTS included 30 × 3 week assays covering 3835 × 384-well plates. This primary HTS generated 20,255 hits defined as >80% reduction in Wolbachia with <60% toxicity to the host insect cell (eliminating false positives). This represents an overall hit rate of 1.56%. These compounds are depicted in chemical space in Fig. 2 (black points)[21].
The mosquito (Aedes albopictus) derived cell line C6/36 (ATCC® CRL 1660), stably infected with Wolbachia pipientis wAlbB (C6/36(wAlbB)), was maintained in Leibovitz L15 medium containing 2 mM L-glutamine, 1% nonessential amino acids, 2% tryptose phosphate broth and 20% heat-inactivated foetal bovine serum (FBS) at 26 °C[18]. This screen exclusively used cells from the large-scale cryopreserved batch produced as part of this campaign by culturing the cells at scale before cryopreservation (90% FBS and 10% DMSO). This produced a cell bank of 190 × 1 ml cryovials containing 3 × 10^7 cells per vial.
(§4) On day 0, a single cryovial was recovered and the cells washed before being transferred to a T225 cm^2 flask. After a 7-day recovery Wolbachia infection level (quality control (QC)) was checked by SYTO®11 DNA staining of both the host cell nuclei and intracellular Wolbachia. The end-point read out from the Operetta® high content imaging system (Perkin Elmer) was the percentage of cells infected with Wolbachia. This was obtained from cytoplasm texture analysis by the associated Harmony® software. Cells with a >50% of the population infected with Wolbachia were classed as having a good Wolbachia level and therefore used for screening through addition of 2000 cells per well into assay ready 384-well plates containing the test compounds. […] Each plate included on-board controls; vehicle/DMSO (total/maximum Wolbachia signal) or doxycycline 5 µM (null/minimum Wolbachia signal), resulting in single shot screening of 352 compounds per plate for the primary screen. […] QC plates were also created including full columns of the following controls; DMSO (total/max), 5 μM doxycycline (null/min), as well as 50 nM doxycycline (reference/medium Wolbachia signal). Daily batches contained ~150 compound plates in addition to the QC plates. Each compound plate was foil sealed before incubation for 7 days at 26 °C, 95% humidity and atmospheric air.
After 7 days of drug incubation, the plates were loaded into the fully automated BioCel system which performed the following additions; fixation and DNA staining (1.8% formaldehyde + 0.6 µg/ml Hoechst 33342, 20 min), permeabilisation (80 μl of PBS + 0.25% Triton-X 100, 30 min), blocking (PBS + 6% BSA, 40 min), overnight incubation in the Wolbachia-specific anti-wBmPAL primary antibody[34] […]

[9] = test system: Wolbachia in C6/36 (wAlbB) cells; assay: Confirmatory re-assessment in the insect cell screen (cell assay EC50); format: cell-based, Wolbachia pipientis wAlbB (in Aedes albopictus C6/36 cells); settings: Wolbachia, C6/36; insect cell screen, re-sourced or re-synthesised samples
Text: To further validate the hit molecules from these 9 clusters, samples were sourced either from the AstraZeneca compound inventory or through re-synthesis. All 18 samples were characterised by nuclear magnetic resonance (NMR) and mass spectroscopy to confirm their chemical structures and by HPLC/LCMS to establish their purity (Supplementary Table 5 and Supplementary Data 1). These samples were also subject to confirmatory re-assessment in both the insect cell screen and Mf assays for anti-Wolbachia potency alongside confirmation of DMPK properties (LogD7.4, aqueous solubility in pH 7.4 PBS, human microsomal turnover, rat hepatocyte turnover and human plasma protein binding) (Fig. 4, Supplementary Figure 1 and Supplementary Table 4).
as §4

[10] = Rat hepatocyte clearance; format: in vitro ADME
Text: as §3

| Structure (SMILES) | pEC50 [2] | logD [3] | fraction unbound [4] | microsomal CLint [5] [µL/min/mg] | solubility [6] [µM] | Rat hepatocytes CLint [10] [µl/min/1x106 cells] | Exposure time to achieve a maximal Wolbachia reduction [1] [days] | Wolbachia reduction after a single day of exposure ([1]; 10x EC50, 1 day exposure, wash, 6-day read out, normalised to vehicle control) [%] | pIC50 [7] | pIC50 [8] | pEC50 [9] |
| --- | --- | --- | --- | --- | --- | --- | --- | --- | --- | --- | --- |
| CO[C@H]1/C=C/O[C@@]2(C)Oc3c(C)c(O)c4c(O)c(c(/C=N/N5CCN(C)CC5)c(O)c4c3C2=O)NC(=O)/C(C)=C\C=C\[C@H](C)[C@H](O)[C@@H](C)[C@@H](O)[C@@H](C)[C@H](OC(C)=O)[C@@H]1C [rifampicin, reference compound] | – | – | – | – | – | – | > 2 | – | – | – | – |
| O=C(Cc1cccc(F)c1)Nc1[nH]ncc1-c1ccccc1 [2B, 2-(3-fluorophenyl)-N-(4-phenyl-1H-pyrazol-5-yl)acetamide] | < 5.30 | 2.5 | 0.12 | 8.5 | 172 (≈ 50.8 µg/mL) | 39.5 | – | – | < 4.51 | 5.36 | 4.95 |
| CN(C)c1ccc(O)c2c1C[C@H]1C[C@H]3[C@H](N(C)C)C(O)=C(C(N)=O)C(=O)[C@@]3(O)C(O)=C1C2=O [minocycline, reference compound] | – | – | – | – | – | – | > 2 | – | – | – | – |

The next lines start with results.

| pEC50 [2] | logD [3] | fraction unbound [4] | microsomal CLint [5] [µL/min/mg] | solubility [6] [µM] | Rat hepatocytes CLint [10] [µl/min/1x106 cells] | Structure (SMILES) | Exposure time to achieve a maximal Wolbachia reduction [1] [days] | Wolbachia reduction after a single day of exposure ([1]; 10x EC50, 1 day exposure, wash, 6-day read out, normalised to vehicle control) [%] | pIC50 [7] | pIC50 [8] | pEC50 [9] |
| --- | --- | --- | --- | --- | --- | --- | --- | --- | --- | --- | --- |
| 6.60 | – | – | – | – | – | C[C@H]1c2cccc(O)c2C(=O)C2=C(O)[C@]3(O)C(=O)C(C(N)=O)=C(O)[C@@H](N(C)C)[C@@H]3[C@@H](O)[C@@H]21 [doxycycline, reference compound] | > 2 | 9 | – | – | – |
| < 5.30 | 3 | 0.12 | 228 | 105 (≈ 50.6 µg/mL) | 28.0 | O=C(Cc1cc(F)cc(F)c1)NCC(=O)NC1C(=O)Nc2ccccc2SC1c1ccccc1 (centres unmarked) [9A, 2-(3,5-difluorophenyl)-N-(2-oxo-2-((4-oxo-2-phenyl-2,3,4,5-tetrahydrobenzo[b][1,4]thiazepin-3-yl)amino)ethyl)acetamide] | – | – | < 4.51 | 6.74 | 6.74 |
| 5.76 | 3.7 | 0.05 | 83.4 | 397 (≈ 132 µg/mL) | > 300 | CNC(=O)c1csc(C2CCCN2Cc2ccc(C)c(F)c2)n1 (centres unmarked) [4B, 2-(1-(3-fluoro-4-methylbenzyl)pyrrolidin-2-yl)-N-methylthiazole-4-carboxamide] | – | – | < 4.51 | 6.64 | 7.18 |
